Test results taken from patent publication US4055658A, “Cyanomethylphenethanolamines” (Mead Johnson & Company, priority 1976, dated 1977).
Read-outs that look alike come from different tables or passages of the source.

What was measured:
[1] = tested on: guinea pig trachea; assay: Effect on spontaneous tone of guinea pig tracheal chain preparations; settings: Cavia porcellus; in vitro, bath concentration; read-out: effective bath concentration (EC) providing a 50% decrease in the spontaneous tone of the guinea pig trachea
Description: (§1) Two in vitro test systems particularly useful in determining selective beta stimulant activity are: (1) effect on spontaneous tone of guinea pig tracheal chain preparations as a measure of relaxant effect on airway smooth muscle, and (2) effect on force and rate of spontaneously beating right atria of the guinea pig as a measure of beta-stimulant effect on cardiac muscle. If a beta-adrenergic agent exerts an effect on spontaneous tone of guinea pig trachea at a concentration lower than is required to affect heart force and rate, there is a positive separation ratio and the agent is considered to have bronchodilator activity with minimal cardiac stimulation. Thus, a comparison of the test agent with standard beta-stimulants such as isoproterenol or other beta-adrenergic agents can be made and relative bronchial selectivity determined.

[2] = tested on: heart rate; assay: Cardiovascular effect (heart rate) measured simultaneously in the dog model; assay type: in vivo; settings: 0.125 and 0.5 mg./kg.
Protocol: (§2) In the rat, transient bronchoconstriction is induced with a short-lasting intravenous (i.v.) infusion of methacholine to obtain a control value and at various times thereafter following intraduodenal (i.d.) administration of the test drug. Doses of test drug blocking methacholine induced bronchoconstriction are determined. In the dog, sustained bronchoconstriction is induced by continuous i.v. infusion of serotonin and doses of test drug necessary to reverse the bronchoconstriction are determined. In both animal models, measurements of cardiovascular effects from test drug is made simultaneously with the determination of the dose reversing bronchoconstriction. These in vivo comparisons are considered particularly significant since the bronchoconstriction induced resembles asthma and intraduodenal drug dosing of the anesthetized animal (i.e., rat) is similar to oral administration to a conscious animal. In the rat, 2-hydroxy-5-[1-hydroxy-2-[(1,1-dimethyl-2-phenylethyl)animo]ethyl]benzeneacetonitrile hydrochloride at a dose of 0.5 mg./kg. and 2.0 mg./kg. of body weight antagonizes methacholine-induced bronchoconstriction by 33.5 ± 5.2% and 72.3 ± 4.0%, respectively.

[3] = tested on: heart rate; assay: Cardiovascular effect (heart rate) measured simultaneously in the rat model; assay type: in vivo; settings: 0.5 and 2.0 mg./kg.
Protocol: as §2

[4] = tested on: methacholine-induced bronchoconstriction; assay: Methacholine-induced bronchoconstriction in anesthetized rat; assay type: in vivo; settings: intraduodenal
Protocol: as §2

[5] = tested on: guinea pig right atria; assay: Effect on force and rate of spontaneously beating right atria of the guinea pig; settings: Cavia porcellus, in vitro
Description: as §1

[6] = tested on: serotonin-increase pulmonary airway resistance; assay: Serotonin-induced sustained bronchoconstriction in anesthetized dog; assay type: in vivo
Protocol: as §2

CC(C)(Cc1ccccc1)NCC(O)c1ccc(O)c(CC#N)c1.Cl (stereo not drawn) [2-Hydroxy-5-[1-hydroxy-2-[(1,1-dimethyl-2-phenylethyl)amino]ethyl]benzeneacetonitrile Hydrochloride]
EC50 [1]: 0.0055 ± 0.0008 µg/mL
effect on heart rate at bronchodilating doses [2]: without appreciably affecting heart rate
effect on heart rate at bronchodilating doses [3]: without appreciably affecting heart rate
antagonism of methacholine-induced bronchoconstriction ([4]; 0.5 mg./kg. of body weight): 33.5 ± 5.2%
antagonism of methacholine-induced bronchoconstriction ([4]; 2.0 mg./kg. of body weight): 72.3 ± 4.0%
EC50 ([5]; force, read-out: EC50 increasing the force of guinea pig right atria): 0.16 ± 0.028 µg/mL
EC50 ([5]; rate, read-out: EC50 increasing the rate of guinea pig right atria): 0.33 ± 0.1 µg/mL
reduction of serotonin-increase pulmonary airway resistance ([6]; 0.125 mg./kg. body weight): 49.7 ± 13.4%
reduction of serotonin-increase pulmonary airway resistance ([6]; 0.5 mg./kg. body weight): 96.7 ± 12.3%
